# Data from ChEMBL document CHEMBL1128381, “Hypoxia-selective antitumor agents. 10. bis(nitroimidazoles) and related Bis(nitroheterocycles): development of derivatives with higher rates of metabolic activation under hypoxia and improved aqueous solubility” (J Med Chem, 1995).
# Activity calls are given as the source filed them. No cut-off for these calls is given here.
# Tests used:
# CHO-AA8 [1] = experiment: Aerobic growth inhibition in Chinese hamster cell line AA8; assay type: functional, cell-based; conditions: Cricetulus griseus
# EMT6 [2] = experiment: Hypersensitivity (HF) factor in murine mammary carcinoma EMT6 cells [HF= ratio (IC50 in AA8 cells)/(IC50 in EMT6)]; assay type: functional, Mus musculus
# UV4 [3] = experiment: Hypersensitivity (HF) factor in chinese hamster cell line UV4 [HF= ratio (IC50 in AA8 cells)/(IC50 in UV4 cells)]; assay type: functional, Cricetulus griseus
# CHO-AA8 [4] = experiment: Concentration x time (uM h) to reduce cell survival to 10% of control values under hypoxic conditions by clonogenic assay; assay type: ADME, cell-based, Cricetulus griseus; conditions: chinese hamster
# FME [5] = experiment: Hypersensitivity (HF) factor in human melanoma FME cells [HF= ratio (IC50 in AA8 cells)/(IC50 in FME cells)]; assay type: functional
# [6] = Ratio between aerobic CT10 and hypoxic CT10; assay type: functional
# CHO-AA8 [7] = experiment: Concentration x time (uM h) to reduce cell survival to 10% of control values under hypoxic conditions by clonogenic assay. Inactive at the solubility limit; assay type: ADME, cell-based, Cricetulus griseus; conditions: chinese hamster
# EMT6 [8] = experiment: Evaluated for hypersensitivity (HF) factor in murine mammary carcinoma EMT6 cells as HF=IC50 for AA8/IC50 for the murine mammary carcinoma EMT6; f means inactive at the solubility limit; assay type: functional, cell-based; conditions: Mus musculus
# UV4 [9] = experiment: Evaluated for hypersensitivity (HF) factor in chinese hamster cell line UV4; Evaluated as HF=IC50 for AA8/IC50 for the chinese hamster cell line UV4; f means inactive at solubility limit; assay type: functional, cell-based; conditions: Cricetulus griseus
# FME [10] = experiment: Evaluated for hypersensitivity (HF) factor in human melanoma FME cells as HF=IC50 for AA8/IC50 for the human melanoma FME; f means inactive at the solubility limit; assay type: functional, cell-based
# [11] = Ratio between aerobic CT10 and hypoxic CT10; No aerobic cytotoxicity at the solubility limit
Structure (SMILES),IC50 (CHO-AA8 [1]) [mM],HF (EMT6 [2]),HF (UV4 [3]),CT10 (CHO-AA8 [4]) [µM·h],HF (FME [5]),selectivity ratio [6],CT10 (CHO-AA8 [7]) [µM·h],HF (EMT6 [8]),HF (UV4 [9]),HF (FME [10]),selectivity ratio [11]
Cc1ncc([N+](=O)[O-])n1CC(O)Cn1cnc([N+](=O)[O-])n1 (stereo not drawn),2.3,4.85,1.16,> 47000,3.63,,,,,,
O=[N+]([O-])c1nccn1CC(O)CNCCBr (stereo not drawn),,1.55,5.85,400,1,20,,,,,
O=C(CCCn1cnc([N+](=O)[O-])n1)NCCCn1ccnc1[N+](=O)[O-],5.28,8.38,1.25,17000,5.94,3.5,,,,,
Cc1ncc([N+](=O)[O-])n1CCN(C)CCCCn1ccnc1[N+](=O)[O-],1,1.44,0.98,2000,1.54,8,,,,,
O=C(NCCCn1ccnc1[N+](=O)[O-])C(=O)NCCCn1ccnc1[N+](=O)[O-],> 0.08,,,,,,> 700,Inactive at solubility limit,Inactive at solubility limit,Inactive at solubility limit,
Cc1ncc([N+](=O)[O-])n1CCNS(=O)(=O)CCCn1ccnc1[N+](=O)[O-],> 40.3,>0.84,,,>0.91,,,,Inactive at solubility limit,,
Cc1ncc([N+](=O)[O-])n1CC(O)Cn1ccnc1[N+](=O)[O-] (stereo not drawn),> 0.8,,>0.85,2400,>1.11,,,Inactive at solubility limit,,,> 3
Cc1ncc([N+](=O)[O-])n1CCNCCCn1ccnc1[N+](=O)[O-],4.74,4.73,1.42,2400,3.61,14,,,,,
O=[N+]([O-])c1nccn1CCCNCCCn1ccnc1[N+](=O)[O-],1.18,5.37,0.9,2300,2.58,40,,,,,
Cc1ncc([N+](=O)[O-])n1CCNC(=O)CCCn1cnc([N+](=O)[O-])n1,6.42,4.94,1.2,100000,4.51,> 1.3,,,,,
O=C(CCCn1ccnc1[N+](=O)[O-])NCCn1cnc([N+](=O)[O-])n1,6.92,10.7,1.19,17000,6.9,,,,,,> 6
CN(CCCn1ccnc1[N+](=O)[O-])CCCn1ccnc1[N+](=O)[O-],0.81,2.6,0.97,700,2.55,40,,,,,
Cc1ncc([N+](=O)[O-])n1CCNC(=O)CCCn1ccnc1[N+](=O)[O-],,4.64,1.38,12000,3.51,8,,,,,
O=C(CCCn1cnc([N+](=O)[O-])n1)NCCn1ccnc1[N+](=O)[O-],1.71,1.76,1.17,15000,>1.9,,,,,,> 1
Cc1ncc([N+](=O)[O-])n1CCNC(=O)CCC(=O)NCCn1ccnc1[N+](=O)[O-],6.6,7.09,1,47000,3.49,,,,,,> 6
Cc1ncc([N+](=O)[O-])n1CCNCCCCn1ccnc1[N+](=O)[O-],2,2.12,1.07,2400,1.27,12,,,,,
Cc1ncc([N+](=O)[O-])n1CCNS(=O)(=O)CCCn1cnc([N+](=O)[O-])n1,1.14,<1.35,<1.35,,1.19,,,,,,
Cc1ncc([N+](=O)[O-])n1CCN(C)C(=O)CCCn1ccnc1[N+](=O)[O-],4.8,2.09,1.05,7200,2.83,> 18,,,,,
O=[N+]([O-])c1nccn1CC1OC(n2ccnc2[N+](=O)[O-])C(O)C(O)C1O (stereo not drawn),7.4,<0.8,0.89,57000,2.44,,,,,,> 1.5
C[N+](C)(CCCn1ccnc1[N+](=O)[O-])CCCn1ccnc1[N+](=O)[O-].[I-],3.65,24.2,0.89,23000,4.85,10,,,,,
COCC(O)Cn1ccnc1[N+](=O)[O-] (stereo not drawn) [MISONIDAZOLE],,3.6,1.37,16000,1.94,18,,,,,
O=[N+]([O-])c1nccn1CC(O)CN1CCCCC1 (stereo not drawn) [PIMONIDAZOLE],3.03,6.3,1.37,3500,4.07,40,,,,,
